Legend:
Assay type in all cases: biochemical
[1] = biological target: T1, Caspase 3 (Homo sapiens, UniProt P42574); experiment: Caspase 3 activity assay, Ac-DEVD-AMC substrate; details: Ac-DEVD-AMC 250 nM, Caspase 3 1.6 nM
T1 sequence (P42574 29-175 limits assumed): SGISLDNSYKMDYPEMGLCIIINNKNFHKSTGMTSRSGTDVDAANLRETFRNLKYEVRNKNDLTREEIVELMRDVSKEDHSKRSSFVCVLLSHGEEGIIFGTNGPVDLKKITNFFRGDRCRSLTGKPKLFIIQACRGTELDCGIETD
T1 sequence (P42574 176-277 limits assumed): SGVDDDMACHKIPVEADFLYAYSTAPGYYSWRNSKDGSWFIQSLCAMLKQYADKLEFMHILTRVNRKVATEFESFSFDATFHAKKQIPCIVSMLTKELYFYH
Description: Caspase 3 was diluted in Caspase 3 buffer (100 mM Hepes pH 7.5; 10% sucrose; 0.1% CHAPS). Compounds stocks (100 mM) were stored at −20° C. in DMSO. Compounds were tested at different concentrations: from 200 μM to 91 nM.
(§1) Reactions were performed as duplicates in Black 384 well plates (small volume microplates; Greiner; 10 μl final reaction volume). The substrate concentration for caspase 3 specificity assay was 250 nM (Ac-DEVD-AMC; Promega). The concentration of the enzyme (Caspase 3) in specificity assays was 1.6 nM. The concentrations were determined in order to perform specificity assays under initial velocities at fixed substrate concentration. Compounds were pre-incubated with enzymes for 30 minutes at 25° C. Reactions were initiated by addition of substrate to the plates containing the enzymes (+/− compounds) diluted in assay buffer. Reactions were incubated for 60 minutes at 37° C. Reactions were stopped by adding acetic acid (100 mM final). Readings were performed on a Pherastar Fluorescent Reader (BMG). λ Emission 380 nm; λ Excitation=460 nm.

[2] = biological target: T2, USP7 (Homo sapiens, UniProt Q93009); experiment: USP7 activity assay, Ub-AMC substrate; design: Full-length wild-type human USP7 and its catalytic mutant; His tag (pFastBac-HT vector) (N); made in house; host or cells: Spodoptera frugiperda Sf9 (or High Five) insect cells, baculovirus; details: UbAMC substrate 300 nM, USP7 100 pM
Description: (§2) Bacmid DNA was prepared by an alkaline lysis procedure. The integrity of the bacmid minipreps and their orientation were checked by PCR, using generic and specific primers. Sf9 insect cells were cultured in InsectXpress medium (Cambrex) at 27° C. and transfected with the corresponding bacmid, using GeneShuttle 40 (Q-BIOgen). Viruses were recovered in the supernatant 72 h after transfection. Viruses were amplified by infecting insect cells (Sf9 or High Five cells; invitrogen) in 50 ml InsectXpress medium in a 150 cm^2 cell culture flask with 500 μl of the supernatant from transfected Sf9 cells. Following the second round of amplification, infected cells were recovered by rapid SDS lysis, boiled for 5 min at 100° C., sonicated briefly and centrifuged for 20 min at 14,000 g.
USP7 was diluted in USP buffer (50 mM Tris HCl; 0.5 mM EDTA (Ethylenediaminetetraacetic acid); 5 mM DTT; 0.01% Triton X-100; Bovine Serum Albumin 0.05 mg·ml^−1 pH7.6). Compounds stocks (10 mM) were stored at −20° C. in DMSO.
as §1, with “volumes” for “volume”, “volume). […]” for “volume).”, “concentrations” for “substrate concentration for caspase 3 specificity assay was 250 nM (Ac-DEVD-AMC; Promega). The concentration”, “(USP7)” for “(Caspase 3)”, “100 pM.” for “1.6 nM.”

[3] = biological target: T2, USP7; experiment: GST-Ub52-Flag HTRF deubiquitinating enzyme assay, USP7; design: Full-length wild-type human USP7 and its catalytic mutant; His tag (pFastBac-HT vector) (N); made in house; host or cells: Spodoptera frugiperda Sf9 (or High Five) insect cells, baculovirus; details: GST-Ub52-Flag substrate, USP7 200 pM
Description: as §2
Flow Through was recovered.

T2 sequence (Q93009 whole entry): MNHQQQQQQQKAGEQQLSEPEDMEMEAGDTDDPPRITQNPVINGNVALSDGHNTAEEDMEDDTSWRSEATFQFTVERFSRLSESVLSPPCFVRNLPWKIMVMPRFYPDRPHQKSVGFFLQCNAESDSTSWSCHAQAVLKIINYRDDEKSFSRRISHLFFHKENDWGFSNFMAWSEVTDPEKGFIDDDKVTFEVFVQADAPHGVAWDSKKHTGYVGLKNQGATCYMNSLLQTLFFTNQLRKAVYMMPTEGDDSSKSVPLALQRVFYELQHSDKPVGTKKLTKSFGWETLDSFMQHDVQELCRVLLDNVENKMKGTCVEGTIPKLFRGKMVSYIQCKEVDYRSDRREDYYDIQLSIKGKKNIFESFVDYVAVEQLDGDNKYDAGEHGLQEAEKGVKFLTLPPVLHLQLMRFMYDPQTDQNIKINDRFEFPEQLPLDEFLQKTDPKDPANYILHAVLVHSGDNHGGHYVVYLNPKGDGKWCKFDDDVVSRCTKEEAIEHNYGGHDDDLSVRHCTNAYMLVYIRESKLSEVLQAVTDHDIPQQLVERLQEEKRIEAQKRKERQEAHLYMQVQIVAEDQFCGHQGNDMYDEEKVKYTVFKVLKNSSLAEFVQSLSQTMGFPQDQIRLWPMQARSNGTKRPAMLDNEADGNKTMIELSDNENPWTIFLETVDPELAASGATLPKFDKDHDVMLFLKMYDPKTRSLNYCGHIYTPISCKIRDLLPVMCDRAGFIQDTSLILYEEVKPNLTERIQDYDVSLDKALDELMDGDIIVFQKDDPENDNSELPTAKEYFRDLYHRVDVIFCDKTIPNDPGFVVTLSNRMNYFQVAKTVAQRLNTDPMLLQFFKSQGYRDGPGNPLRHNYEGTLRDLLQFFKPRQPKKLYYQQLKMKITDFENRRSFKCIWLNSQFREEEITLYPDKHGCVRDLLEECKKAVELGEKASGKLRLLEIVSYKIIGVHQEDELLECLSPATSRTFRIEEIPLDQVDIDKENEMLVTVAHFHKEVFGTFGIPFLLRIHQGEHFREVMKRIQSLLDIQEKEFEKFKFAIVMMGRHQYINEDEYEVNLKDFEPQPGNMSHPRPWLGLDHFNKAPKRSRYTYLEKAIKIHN

Row | IC50 [1] | IC50 [2] | IC50 [3] | Compound
1 | > 200 µM | 90 µM | 174 µM | COc1cc2ncn(CC3(O)CCN(C(=O)C(C)C)CC3)c(=O)c2cc1OC [Example 7, 3-{[4-hydroxy-1-(2-methylpropanoyl)piperidin-4-yl]methyl}-6,7-dimethoxy-3,4-dihydroquinazolin-4-one]
2 | > 200 µM | 40 µM | 33 µM | CC(Cc1cccs1)C(=O)N1CCC(O)(Cn2cnc3cc(Cl)ccc3c2=O)CC1 (stereo not shown) [Example 11, 7-chloro-3-({4-hydroxy-1-[2-methyl-3-(thiophen-2-yl)propanoyl]piperidin-4-yl}methyl)-3,4-dihydroquinazolin-4-one]
3 | > 200 µM | 70 µM | 42 µM | O=C(CCc1cccs1)N1CCC(O)(Cn2cnc3ccccc3c2=O)CC1 [Example 12, 3-({4-hydroxy-1-[3-(thiophen-2-yl)propanoyl]piperidin-4-yl}methyl)-3,4-dihydroquinazolin-4-one]
4 | > 200 µM | 54 µM | 173 µM | O=C(CCC1CCCC1)N1CCC(O)(Cn2cnc3cc(Cl)ccc3c2=O)CC1 [Example 4, 7-chloro-3-{[1-(3-cyclopentylpropanoyl)-4-hydroxypiperidin-4-yl]methyl}-3,4-dihydroquinazolin-4-one]
5 | > 200 µM | 37 µM | 36 µM | CC(Cc1cccs1)C(=O)N1CCC(O)(Cn2cnc3ccccc3c2=O)CC1 (stereo not shown) [Example 5, 3-({4-hydroxy-1-[2-methyl-3-(thiophen-2-yl)propanoyl]piperidin-4-yl}methyl)-3,4-dihydroquinazolin-4-one]
6 | > 200 µM | 69 µM | 74 µM | O=C(CCc1ccccc1)N1CCC(O)(Cn2cnc3ccccc3c2=O)CC1 [Example 1, 3-{[4-hydroxy-1-(3-phenylpropanoyl)piperidin-4-yl]methyl}-3,4-dihydroquinazolin-4-one]
7 | > 200 µM | 100 µM | 175 µM | O=C(CCC1CCCC1)N1CCC(O)(Cn2cnc3ccccc3c2=O)CC1 [Example 3, 3-{[1-(3-cyclopentylpropanoyl)-4-hydroxypiperidin-4-yl]methyl}-3,4-dihydroquinazolin-4-one]
8 | > 200 µM | 155 µM | 214 µM | CCC(CC)C(=O)N1CCC(O)(Cn2cnc3cc(Cl)ccc3c2=O)CC1 [Example 9, 7-chloro-3-{[1-(2-ethylbutanoyl)-4-hydroxypiperidin-4-yl]methyl}-3,4-dihydroquinazolin-4-one]
9 | > 200 µM | 261 µM | > 200 µM | COc1ccccc1CCC(=O)N1CCC(O)(Cn2cnc3ccccc3c2=O)CC1 [Example 10, 3-({4-hydroxy-1-[3-(2-methoxyphenyl)propanoyl]piperidin-4-yl}methyl)-3,4-dihydroquinazolin-4-one]
10 | > 200 µM | 156 µM | > 200 µM | CC(C)C(=O)N1CCC(O)(Cn2cnc3ccccc3c2=O)CC1 [Example 6, 3-{[4-hydroxy-1-(2-methylpropanoyl)piperidin-4-yl]methyl}-3,4-dihydroquinazolin-4-one]
11 | > 200 µM | 33 µM | 77 µM | O=C(CCc1ccccc1)N1CCC(O)(Cn2cnc3cc(Cl)ccc3c2=O)CC1 [Example 2, 7-chloro-3-{[4-hydroxy-1-(3-phenylpropanoyl)piperidin-4-yl]methyl}-3,4-dihydroquinazolin-4-one]
12 | > 200 µM | 24 µM | 29 µM | CC(Cc1ccccc1)C(=O)N1CCC(O)(Cn2cnc3cc(Cl)ccc3c2=O)CC1 (stereo not shown) [Example 14, 3-{[1-(2-benzylpropanoyl)-4-hydroxypiperidin-4-yl]methyl}-7-chloro-3,4-dihydroquinazolin-4-one]

Row | Compound | IC50 [1] | IC50 [2] | IC50 [3]
13 | CC(Cc1ccccc1)C(=O)N1CCC(O)(Cn2cnc3ccccc3c2=O)CC1 (stereo not shown) [Example 13, 3-{[1-(2-benzylpropanoyl)-4-hydroxypiperidin-4-yl]methyl}-3,4-dihydroquinazolin-4-one] | > 200 µM |  | 
